# In patent US5962502A, “Polyamidic acid derivatives with antigastrin activity, a method for their preparation, and their pharmaceutical use” (priority 1993, dated 1999):
# What was measured:
# [1] = biological target: T1, gastrin receptors or type-B cholecystokinin (CCK-B) receptors (Oryctolagus cuniculus, UniProt P46627); experiment: Inhibition of the gastrin-induced increase of cytosolic calcium in rabbit gastric mucous-membrane cells (Fura 2); format: cell-based; conditions: for Ratio IC50 Binding cortex / IC50 (gastric mucous cells): binding values taken from Table 3; for CCK-B-antagonistic activity IC50 (II): data taken from Table 4 (rabbit gastric mucous cells), reprinted in Table 6; for IC50, inhibition of the increase of cytosolic calcium: rabbit gastric mucous cells enriched in parietal cells, gastrin 5×10^-8
# T1 construct: Rabbit gastric mucous-membrane cells were prepared by conventional techniques; endogenous in cells; host or cells: freshly isolated rabbit gastric mucosal cells, enriched by elutriation to about 70% parietal cells
# T1 sequence (P46627 1-452): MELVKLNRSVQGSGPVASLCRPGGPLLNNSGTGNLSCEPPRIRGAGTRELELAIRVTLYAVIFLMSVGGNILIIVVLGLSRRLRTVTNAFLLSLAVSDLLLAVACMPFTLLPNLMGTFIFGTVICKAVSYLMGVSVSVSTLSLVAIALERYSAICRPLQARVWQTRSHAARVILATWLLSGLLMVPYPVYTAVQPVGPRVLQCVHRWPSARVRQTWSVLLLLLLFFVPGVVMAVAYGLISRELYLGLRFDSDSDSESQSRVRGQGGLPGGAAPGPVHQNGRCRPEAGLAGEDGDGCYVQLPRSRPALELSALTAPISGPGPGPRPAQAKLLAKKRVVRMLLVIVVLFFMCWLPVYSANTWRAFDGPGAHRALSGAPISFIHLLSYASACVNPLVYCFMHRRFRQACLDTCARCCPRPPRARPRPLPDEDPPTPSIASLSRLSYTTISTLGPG
# Summary of the method: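 Enzymatically dispersed (collagenase/pronase) rabbit gastric mucosal cells, loaded with Fura 2, were suspended at 0.8×10^6/ml in HEPES-buffered saline at 37 °C with stirring. Gastrin-induced cytosolic Ca²⁺ rise was measured with and without compound by fluorescence (excitation 340/380 nm, emission 505 nm).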
# mouse = experiment: Black and White Box test in the mouse (anxiolytic activity); format: in vivo; conditions: for LIGHT TIME TOTAL TIME / LIGHT-DARK MOVEMENTS / MOV. DARK % TOTAL MOV. / TOTAL MOVEMENTS: 5 minutes; for anxiolytic activity, result in words: Black and White Box test, IP; for increase in the number of light-dark movements in comparison with the controls: summary over doses
# Experimental: It has recently been postulated that the central CCK-B receptor has an important role in anxiety. This is in accordance with studies also carried out in man, which have shown that the central CCK-B mechanisms have an important function in the mediation of panic attacks [Bradwejn, H. et al; J. Psychopharmacology 6 (1992), 345]. […] This experimental model, which was carried out according to Costall et al [Pharm. Biochem. Behav. 32 (1989), 777-785], used a box with dimensions of 45×21×21(h) cm divided into 2 compartments which communicated with one another through a 13×5 cm hole. The smaller compartment (1/3 of the total area) had black walls, whereas the larger had transparent walls and was illuminated by a lamp which was placed 20 cm above the box and supplied light at 20W. Under the floor there was an activity meter which recorded the movements performed by the animal in the individual compartments. The experiment was started by placing the animal in the centre of the illuminated box; as well as movements, the time which the animal spent in the dark and in the light areas and the number of movements between the 2 compartments were then recorded for 5 minutes. A control animal generally preferred to stay in the dark compartment where it felt better protected from an unusual environmental situation which put it in a state of anxiety. In this experimental model, a compound having anxiolytic activity decreased the % of movements into the dark in comparison with the total movements, increased the movements between the two light-dark compartments, and increased the % of time spent in the light in comparison with the total time.
# The results obtained are shown in Table 7, where the activities obtained with compounds 9, 21 and 51 are given, tested in comparison with diazepam.
structure (smiles),measurement,setting,value
O=C(CC[C@@H](NC(=O)c1cc(Cl)cc(Cl)c1)C(=O)N1CCC2(CCCC2)CC1)N[C@H](Cc1c[nH]c2ccccc12)C(=O)O [Compound 21],Ratio IC50 Binding cortex / IC50 (gastric mucous cells),[1],4.0
same,CCK-B-antagonistic activity IC50 (II),[1],10 nM
same,"IC50 order of magnitude, peripheral antigastrin activity",[1]; rabbit gastric mucous cells,nanomolar order of magnitude
same,"IC50, inhibition of the increase of cytosolic calcium",[1],10 nM
same,EFF. % VS CONTROL (LIGHT TIME TOTAL TIME),mouse; 0.03 mg/kg IP,11%
same,EFF. % VS CONTROL (LIGHT-DARK MOVEMENTS),mouse; 0.03 mg/kg IP,26%
same,EFF. % VS CONTROL (MOV. DARK % TOTAL MOV.),mouse; 0.03 mg/kg IP,-6%
same,LIGHT TIME TOTAL TIME,mouse; 0.03 mg/kg IP,28.9%
same,LIGHT-DARK MOVEMENTS,mouse; 0.03 mg/kg IP,18.2
same,MOV. DARK % TOTAL MOV.,mouse; 0.03 mg/kg IP,62%
same,TOTAL MOVEMENTS,mouse; 0.03 mg/kg IP,522
same,EFF. % VS CONTROL (LIGHT TIME TOTAL TIME),mouse; 0.3 mg/kg IP,30%
same,EFF. % VS CONTROL (LIGHT-DARK MOVEMENTS),mouse; 0.3 mg/kg IP,37%
same,EFF. % VS CONTROL (MOV. DARK % TOTAL MOV.),mouse; 0.3 mg/kg IP,-1.1%
same,LIGHT TIME TOTAL TIME,mouse; 0.3 mg/kg IP,33.9%
same,LIGHT-DARK MOVEMENTS,mouse; 0.3 mg/kg IP,19.8
same,MOV. DARK % TOTAL MOV.,mouse; 0.3 mg/kg IP,57%
same,TOTAL MOVEMENTS,mouse; 0.3 mg/kg IP,499
same,EFF. % VS CONTROL (LIGHT TIME TOTAL TIME),mouse; 3.0 mg/kg IP,24%
same,EFF. % VS CONTROL (LIGHT-DARK MOVEMENTS),mouse; 3.0 mg/kg IP,26%
same,EFF. % VS CONTROL (MOV. DARK % TOTAL MOV.),mouse; 3.0 mg/kg IP,-9%
same,LIGHT TIME TOTAL TIME,mouse; 3.0 mg/kg IP,32.4%
same,LIGHT-DARK MOVEMENTS,mouse; 3.0 mg/kg IP,18.2
same,MOV. DARK % TOTAL MOV.,mouse; 3.0 mg/kg IP,60%
same,TOTAL MOVEMENTS,mouse; 3.0 mg/kg IP,495
same,"anxiolytic activity, result in words",mouse,anxiolytic activity without sedative activity
same,increase in the number of light-dark movements in comparison with the controls,mouse,20-30%
"O=C(CC[C@@H](NC(=O)c1cc(Cl)cc(Cl)c1)C(=O)N1CCC2(CCCC2)CC1)N[C@H](Cc1ccccc1)C(=O)O [Compound 9, (R,R)-1[(1-carboxy-2-phenylethyl)amino]-1 oxo-5-(8-azaspiro[4.5]decan-8-yl)-4-(3,5-dichloro-benzoylamino)-5-oxopentanoic acid]",Ratio IC50 Binding cortex / IC50 (gastric mucous cells),[1],3.0
same,CCK-B-antagonistic activity IC50 (II),[1],50 nM
same,"IC50, inhibition of the increase of cytosolic calcium",[1],50 nM
same,EFF. % VS CONTROL (LIGHT TIME TOTAL TIME),mouse; 0.1 mg/kg IP,17%
same,EFF. % VS CONTROL (LIGHT-DARK MOVEMENTS),mouse; 0.1 mg/kg IP,6%
same,EFF. % VS CONTROL (MOV. DARK % TOTAL MOV.),mouse; 0.1 mg/kg IP,0%
same,LIGHT TIME TOTAL TIME,mouse; 0.1 mg/kg IP,31.0%
same,LIGHT-DARK MOVEMENTS,mouse; 0.1 mg/kg IP,16.1
same,MOV. DARK % TOTAL MOV.,mouse; 0.1 mg/kg IP,59%
same,TOTAL MOVEMENTS,mouse; 0.1 mg/kg IP,505
same,EFF. % VS CONTROL (LIGHT TIME TOTAL TIME),mouse; 1.0 mg/kg IP,36%
same,EFF. % VS CONTROL (LIGHT-DARK MOVEMENTS),mouse; 1.0 mg/kg IP,31%
same,EFF. % VS CONTROL (MOV. DARK % TOTAL MOV.),mouse; 1.0 mg/kg IP,-7%
same,LIGHT TIME TOTAL TIME,mouse; 1.0 mg/kg IP,36.1%
same,LIGHT-DARK MOVEMENTS,mouse; 1.0 mg/kg IP,19.9
same,MOV. DARK % TOTAL MOV.,mouse; 1.0 mg/kg IP,55%
same,TOTAL MOVEMENTS,mouse; 1.0 mg/kg IP,493
same,EFF. % VS CONTROL (LIGHT TIME TOTAL TIME),mouse; 10.0 mg/kg IP,26%
same,EFF. % VS CONTROL (LIGHT-DARK MOVEMENTS),mouse; 10.0 mg/kg IP,16%
same,EFF. % VS CONTROL (MOV. DARK % TOTAL MOV.),mouse; 10.0 mg/kg IP,-7%
same,LIGHT TIME TOTAL TIME,mouse; 10.0 mg/kg IP,33.5%
same,LIGHT-DARK MOVEMENTS,mouse; 10.0 mg/kg IP,17.7
same,MOV. DARK % TOTAL MOV.,mouse; 10.0 mg/kg IP,55%
same,TOTAL MOVEMENTS,mouse; 10.0 mg/kg IP,503
same,"anxiolytic activity, result in words",mouse,anxiolytic activity without sedative activity
same,increase in the number of light-dark movements in comparison with the controls,mouse,20-30%
